This is an account of results in patent publication US5254549A, “New BHT ether compounds and their use as hypolipidemic and antiatherosclerotic drugs” (Merz & Co. GmbH & Co., priority 1991, dated 1993).

The subject of data set [1] is triglycerides. The data set can be described thus: Lipid-lowering properties in fasting normolipidemic rats (serum triglycerides, GPO-PAP method). The class given is in vivo. Conditions: rat, single oral dose 0.2 mmol/kg, read-out: Mean change (Δ mean reduction) of triglyceride concentrations versus vehicle-treated control. The procedure:
The lipid-lowering properties of the compounds according to the invention were investigated in a rat model. In this model a single dose (0.2 mmol/kg) of the test substance was administered to fasting normolipidemic rats by the oral route. 240 and 360 minutes after application, blood samples were taken, the concentrations of triglycerides being assessed by a standard method (namely GPO-PAP method, E. Merck-system, Darrdstadt, Germany) (n=5 rats per measurement time).
In Table 2 the mean changes are given in percent as compared to a solvent (cremophor, 30% in aqua dest) control.
Table 2: Mean changes (Δ mean reduction) in percent of triglyceride concentrations 240 and 360 minutes after a single application versus vehicle-treated control.

Data set [2] is described as follows: Trilinolenine assay of antioxidant properties (TBA-reactive material). Conditions: 5×10^-5 M, 3 h at 37° C., versus vehicle-treated control; 50 µM. It counts as biochemical. The procedure:
(§1) The antioxidant properties of the compounds according to the invention were studied in in-vitro tests. In these tests the substance was incubated with the substrate to be oxidized (synthetic triglyceride with unsaturated fatty acids, i.e., trilinolenine or human LDL). After the incubation period, the degree of oxidation was determined using the so called thiobarbituric acid (TBA) assay. TBA reacts with malondialdehyde (MDA), which is one of the essential oxidation products. The reaction product was assayed photometrically.
400 μl of trilinolenine was incubated for 3 h at 37° C. with 2 ml HAM F 10 medium with vehicle (namely, ethanol, 0.5% final concentration) or test substance (concentration: 5×10^-5 M) (oxidation is effected without special catalysts).
The total TBA-reactive material was determined in 1 ml of the incubate by adding 1.5 ml of 0.67% TBA solution to 0.05 N NAOH and 1.5 ml to a 20% trichloroacetic acid solution. The mixture was reacted for 60 min. on a boiling water bath. After cooling, absorption was determined at 532 nm.
(§2) Three preparations were tested per test compound.
(§3) Tables 3a (trilinolenine assay) and 3b (LDL assay) represent the mean changes in percent as compared to solvent control.
(§4) Table 3: mean change (Δ mean reduction) in percent of the concentration of TBA-reactive material after 3-h (a: trilinolenine assay) and 24-h (b: LDL assay) incubation versus vehicle-treated control preparation.

Data set [3] concerns human LDL. The data set can be described thus: LDL assay of antioxidant properties (TBA-reactive material). It counts as biochemical. Conditions: 5×10^-5 M, 24 h, 10 μM Cu^2+, versus vehicle-treated control; 50 µM. The procedure:
as §1
LDL (d=1.019-1.063) was obtained from human plasma by ultracentifugation under addition of EDTA.
100 μg of LDL was incubated with 0. 5 ml of HAM F 10 medium for 24 h at […] with vehicle (namely ethanol, 0. 5% final concentration) or test substance (concentration: 5×10^-5 M) in the presence of 10 μM of Cu^2+.
The total TBA-reactive material was determined in accordance with the trilinolenine assay.
as §2, §3, §4

Data set [4] deals with Human endothelial cells of the umbilical vein. The data set can be described thus: Endothelial protection against cytotoxic effects of oxidized LDL. The class given is cell-based. Conditions: 2×10^-5 M, 24 h at 37° C., LDL 200 μg/ml; for Mean change (Δ mean reduction) of the concentration of TBA-reactive material after incubation of endothelial cells with LDL: versus control preparation 1 (vehicle + LDL), 20 µM; for viability at 20 µM: Homo sapiens, Endothelial cell, control preparation 2 without LDL = 100%, read-out: Mean number of endothelial cells after incubation with LDL as compared to control preparation 2. On the procedure:
Human endothelial cells of the umbilical vein were isolated after collagenase vascular treatment and cultured.
For the assay the cells were dispersed in a density of 50,000 per dish and cultivated for 4 days with Ham's F 12/DMEM medium (ratio: 4:1) under addition of 15% fetal calf serum, 5% horse serum and 10 ng/ml ECGF heparin.
After 4 days the cells were washed with serum-free medium and used in the cytotox assay.
For this assay the cells were incubated f or 24 h at 37° C. in 1 ml of Ham's F 10 medium (+ECGF heparin) with LDL (200 μg/ml). During this time period either the vehicle, namely, ethanol, 0.5% final concentration (control preparation 1) or the test substance (2×10^-5 M) was present. In parallel, one preparation was incubated without LDL and without any other substance and with vehicle (0.5% ethanol) to assess the maximum proliferation rate (control preparation 2).
After 24 h the resultant TBA-reactive material was determined in the medium or the number of cells counted.
as §2
Table 4a represents the mean changes in percent versus appropriate control preparation 1.
Table 4a: Mean change (Δ mean reduction) in percent of the concentration of TBA-reactive material after incubation of endothelial cells for 24 h with LDL versus appropriate control preparation 1.
Table 4b: Mean number of cells in percent after 24-h incubation with LDL as compared to appropriate control preparation 2.

The test system of data set [5] is Smooth muscle cells from the aorta of balloon-catheterized rats. Description: Antiproliferative effect on smooth muscle cells in vitro. The class given is cell-based. Conditions: Rattus norvegicus, 72 h; 5×10^-5 M, 3 days, versus vehicle-treated control; read-out: Mean change (Δ mean reduction) of the number of smooth vascular muscle cells. On the procedure: Smooth muscle cells, obtained after isolation from the aorta of balloon-catheterized rats, were cultivated in DMEM under addition of 10% of fetal calf serum and subject to passages.
For the assay 10,000 cells of one passage were inoculated per dish and incubated for 3 days with vehicle (namely DMSO, 0.5% final concentration) or test compound (5×10^-5 M) 4 h after innoculation. After 3 days a cell count was made. Six preparations-Were tested per test compound.
Table 5: Mean change (Δ mean reduction) in percent of the number of smooth vascular muscle cells after incubation with test substance for 3 days as compared to vehicle-treated control preparation.

Data set [6] in a line: Kinetics of nicotinic acid released from the compounds in fasting normolipidemic rats (GC/MS in serum). Conditions: general statement. The class given is in vivo, rat. On the procedure: The kinetics of nicotinic acid released from the compounds under investigation was studied in the rat. A single dose (0.2 mmol/kg) of the test substance was administered to fasting normolipidemic rats by gavage. 240 and 360 minutes thereafter, blood samples were taken and the concentration of nicotinic acid in serum was determined using a GC/MS method (n=5 rats per time). Table 1: Concentration of nicotinic acid (mg/1) in pooled serum samples after a single application of drug.

Where two headings read alike, the source gives them in different places.

As to `CC(C)(C)c1cc(COCCCCCc2cccnc2)cc(C(C)(C)C)c1O` [3/192, 2,6-Di-tert-butyl-4-[7-(3-pyridyl)-2-oxaheptyl]phenol], the inhibition in vivo at 200 µmol/kg stood at 44% in data set [1] (4 h, Time 240') and 53% in data set [1] (6 h, Time 360'). The “Mean change (Δ mean reduction) of the concentration of TBA-reactive material, trilinolenine assay” value in data set [2] is 74%. The “Mean change (Δ mean reduction) of the concentration of TBA-reactive material, LDL assay” value (from here on “Mean change (Δ mean reduction) … LDL assay”) in data set [3] turned out to be 86%. Moreover, in data set [4], the “Mean change (Δ mean reduction) of the concentration of TBA-reactive material after incubation of endothelial cells with LDL” value (“Mean change (Δ mean reduction) … with LDL” for short) was 47%. In addition, the viability at 20 µM in data set [4] amounted to 79%. Moreover, the inhibition at 50 µM in data set [5] was found to be 95%.
As for `CC(C)(C)c1cc(COCCCCc2cccnc2)cc(C(C)(C)C)c1O` [3/187, 2,6-Di-tert-butyl-4-[6-(3-pyridyl)-2-oxahexyl]phenol], the inhibition in vivo at 200 µmol/kg in data set [1] (4 h, Time 240') was 65%. In addition, in data set [1] (6 h, Time 360'), the inhibition in vivo at 200 µmol/kg was 55%. The “Mean change (Δ mean reduction) of the concentration of TBA-reactive material, trilinolenine assay” value in data set [2] is 71%. In addition, in data set [3], the “Mean change (Δ mean reduction) … LDL assay” value turned out to be 82%. Further, in data set [4], the “Mean change (Δ mean reduction) … with LDL” value is recorded as 53% and the viability at 20 µM is 80%. The inhibition at 50 µM in data set [5] was 93%.
With `CC(C)(C)c1cc(COCCCC/C=C\c2cccnc2)cc(C(C)(C)C)c1O` [3/181, (Z)-2,6-Di-tert-butyl-4-(8-(3-pyridyl)-2-oxaoct-7-enyl]-phenol], the inhibition in vivo at 200 µmol/kg in data set [1] (4 h, Time 240') turned out to be 57%. The inhibition in vivo at 200 µmol/kg in data set [1] (6 h, Time 360') came to 57%. For the same compound, the “Mean change (Δ mean reduction) of the concentration of TBA-reactive material, trilinolenine assay” value in data set [2] amounted to 76%. Further, in data set [3], the “Mean change (Δ mean reduction) … LDL assay” value is given as 76%. Also, in data set [4], the “Mean change (Δ mean reduction) … with LDL” value was 65% and the viability at 20 µM is 122%. Moreover, in data set [5], the inhibition at 50 µM is 81%.
With `CC(C)(C)c1cc(CCCOCc2cccnc2)cc(C(C)(C)C)c1O` [3/124, 2,6-Di-tert-butyl-4-(5-(3-pyridyl)-4-oxapentyl]phenol], in data set [1] (4 h, Time 240'), the inhibition in vivo at 200 µmol/kg amounted to 73%. Also, the inhibition in vivo at 200 µmol/kg in data set [1] (6 h, Time 360') amounted to 76%. Besides, in data set [2], the “Mean change (Δ mean reduction) of the concentration of TBA-reactive material, trilinolenine assay” value is 76%. In data set [3], the “Mean change (Δ mean reduction) … LDL assay” value stood at 90%. Besides, in data set [4], the “Mean change (Δ mean reduction) … with LDL” value is listed as 57% and the viability at 20 µM was found to be 118%. Also, in data set [5], the inhibition at 50 µM stood at 71%.
As to `CC(C)(C)c1cc(COCCCCCCCc2cccnc2)cc(C(C)(C)C)c1O` [3/188, 2,6-Di-tert-butyl-4-[9-(3-pyridyl)-2-oxanonyl]phenol], the inhibition in vivo at 200 µmol/kg in data set [1] (4 h, Time 240') is 53%; in data set [1] (6 h, Time 360') it was 40%. For the same compound, in data set [2], the “Mean change (Δ mean reduction) of the concentration of TBA-reactive material, trilinolenine assay” value is on record as 66%. Besides, the “Mean change (Δ mean reduction) … LDL assay” value in data set [3] amounted to 71%. Moreover, the “Mean change (Δ mean reduction) … with LDL” value in data set [4] was determined as 54%. For the same compound, in data set [4], the viability at 20 µM was determined as 79%. Further, the inhibition at 50 µM in data set [5] amounted to 63%.
As for `CC(C)(C)c1cc(COCCCCC#Cc2cccnc2)cc(C(C)(C)C)c1O` [3/179, 2,6-Di-tert-butyl-4-[8-(3-pyridyl)-2-oxaoct-7-ynyl]phenol], the inhibition in vivo at 200 µmol/kg in data set [1] (4 h, Time 240') was determined as 57%. Besides, the inhibition in vivo at 200 µmol/kg in data set [1] (6 h, Time 360') was found to be 70%. Besides, in data set [2], the “Mean change (Δ mean reduction) of the concentration of TBA-reactive material, trilinolenine assay” value is 79%. The “Mean change (Δ mean reduction) … LDL assay” value in data set [3] is given as 73%. Further, in data set [4], the “Mean change (Δ mean reduction) … with LDL” value was 43% and the viability at 20 µM was determined as 76%. For the same compound, in data set [5], the inhibition at 50 µM came out at 55%.
Regarding `CC(C)(C)c1cc(CCCOCCCCCc2cccnc2)cc(C(C)(C)C)c1O` [3/191, 2,6-Di-tert-butyl-4-[9-(3-pyridyl)-4-oxanonyl)phenol], the inhibition in vivo at 200 µmol/kg in data set [1] (4 h, Time 240') came to 37%. For the same compound, the inhibition in vivo at 200 µmol/kg in data set [1] (6 h, Time 360') amounted to 32%. Further, in data set [2], the “Mean change (Δ mean reduction) of the concentration of TBA-reactive material, trilinolenine assay” value is 76%. For the same compound, the “Mean change (Δ mean reduction) … LDL assay” value in data set [3] came to 86%. Moreover, in data set [4], the “Mean change (Δ mean reduction) … with LDL” value is 33% and the viability at 20 µM amounted to 63%. Besides, the inhibition at 50 µM in data set [5] came out at 79%.
Take `CC(C)(C)c1cc(CCCOCCCc2cccnc2)cc(C(C)(C)C)c1O` [3/190, 2,6-Di-tert-butyl-4-[7-(3-pyridyl)-4-oxaheptyl]phenol]: the inhibition in vivo at 200 µmol/kg in data set [1] (4 h, Time 240') is 56%; in data set [1] (6 h, Time 360'), 28%. Besides, the “Mean change (Δ mean reduction) of the concentration of TBA-reactive material, trilinolenine assay” value in data set [2] came to 72%. The “Mean change (Δ mean reduction) … LDL assay” value in data set [3] was determined as 89%. Besides, the “Mean change (Δ mean reduction) … with LDL” value in data set [4] is on record as 36%. Further, the viability at 20 µM in data set [4] worked out at 65%. Also, the inhibition at 50 µM in data set [5] is 91%.
As for `CC(C)(C)c1cc(COCc2cccnc2)cc(C(C)(C)C)c1O` [3/156], the “levels of nicotinic acid (in words)” value in data set [6] is on record as “excessively high levels of nicotinic acid”.
Consider `CC(C)(C)c1cc(COCCCCCCc2cccnc2)cc(C(C)(C)C)c1O` [3/161, 2,6-Di-tert-butyl-4-[8-(3-pyridyl)-2-oxaoctyl]phenol], for which the inhibition in vivo at 200 µmol/kg in data set [1] (4 h, Time 240') came out at 60%. Further, the inhibition in vivo at 200 µmol/kg in data set [1] (6 h, Time 360') came to 67%. Moreover, the “Mean change (Δ mean reduction) of the concentration of TBA-reactive material, trilinolenine assay” value in data set [2] worked out at 58%. In addition, the “Mean change (Δ mean reduction) … LDL assay” value in data set [3] amounted to 79%. For the same compound, in data set [4], the “Mean change (Δ mean reduction) … with LDL” value turned out to be 64% and the viability at 20 µM came out at 107%. Moreover, the inhibition at 50 µM in data set [5] was 98%.
